Reference: patent US20220298213A1, “IN VIVO ENGINEERED CEREBLON PROTEIN” (Vividion Therapeutics, Inc., priority 2018, published 2022)

Tests used:
Type in all cases: binding
[1] = target: T1, TEC_449 (Homo sapiens, UniProt P42680); assay: Probe labeling at native and denatured states after pretreatment (Table 2); conditions: screening concentration
T1 construct: In each the cell lysate was pretreated with compound; endogenous in cells
T1 sequence (P42680 1-631): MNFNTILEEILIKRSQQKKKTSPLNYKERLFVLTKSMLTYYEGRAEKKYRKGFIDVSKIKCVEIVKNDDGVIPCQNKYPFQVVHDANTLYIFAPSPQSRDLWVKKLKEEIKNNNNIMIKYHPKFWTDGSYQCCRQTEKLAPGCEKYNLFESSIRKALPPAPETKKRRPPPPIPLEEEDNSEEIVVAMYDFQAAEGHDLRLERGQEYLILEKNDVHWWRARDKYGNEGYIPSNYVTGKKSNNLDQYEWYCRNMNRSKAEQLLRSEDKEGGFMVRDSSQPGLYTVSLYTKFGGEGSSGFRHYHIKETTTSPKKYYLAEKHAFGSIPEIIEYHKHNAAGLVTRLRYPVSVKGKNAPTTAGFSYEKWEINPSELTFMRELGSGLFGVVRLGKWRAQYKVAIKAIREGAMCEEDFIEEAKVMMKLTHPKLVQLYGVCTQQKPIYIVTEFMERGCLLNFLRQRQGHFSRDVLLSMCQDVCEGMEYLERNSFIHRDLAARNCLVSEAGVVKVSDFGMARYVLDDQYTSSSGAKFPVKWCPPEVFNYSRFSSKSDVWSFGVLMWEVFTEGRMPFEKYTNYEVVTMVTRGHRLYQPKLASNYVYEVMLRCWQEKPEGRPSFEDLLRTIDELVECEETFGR

[2] = target: T2, BTK_481 (Homo sapiens, UniProt Q06187); assay: as above; conditions: screening concentration
T2 construct: In each the cell lysate was pretreated with compound; endogenous in cells
T2 sequence (Q06187 whole entry): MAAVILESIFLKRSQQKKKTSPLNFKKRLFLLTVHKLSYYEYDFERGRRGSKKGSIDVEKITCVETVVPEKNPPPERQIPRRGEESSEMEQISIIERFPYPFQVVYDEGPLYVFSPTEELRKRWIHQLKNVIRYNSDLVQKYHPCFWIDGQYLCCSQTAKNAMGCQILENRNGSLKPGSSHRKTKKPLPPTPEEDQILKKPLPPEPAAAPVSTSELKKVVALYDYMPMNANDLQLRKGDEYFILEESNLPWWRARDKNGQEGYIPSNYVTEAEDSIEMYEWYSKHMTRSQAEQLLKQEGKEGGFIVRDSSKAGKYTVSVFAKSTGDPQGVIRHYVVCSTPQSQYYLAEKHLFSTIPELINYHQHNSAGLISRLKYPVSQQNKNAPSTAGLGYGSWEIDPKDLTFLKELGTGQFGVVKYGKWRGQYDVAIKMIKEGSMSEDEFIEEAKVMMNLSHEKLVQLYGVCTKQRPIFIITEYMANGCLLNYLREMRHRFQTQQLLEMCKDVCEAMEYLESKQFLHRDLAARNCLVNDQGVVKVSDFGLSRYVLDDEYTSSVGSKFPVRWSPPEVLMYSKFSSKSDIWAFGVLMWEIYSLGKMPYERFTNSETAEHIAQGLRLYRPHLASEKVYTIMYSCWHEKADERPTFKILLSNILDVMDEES

[3] = target: CRBN-287 (Homo sapiens, UniProt Q96SW2); assay: as above; design: endogenous in cells; host or cells: cell lysate
Chain of CRBN-287 (Q96SW2 whole entry): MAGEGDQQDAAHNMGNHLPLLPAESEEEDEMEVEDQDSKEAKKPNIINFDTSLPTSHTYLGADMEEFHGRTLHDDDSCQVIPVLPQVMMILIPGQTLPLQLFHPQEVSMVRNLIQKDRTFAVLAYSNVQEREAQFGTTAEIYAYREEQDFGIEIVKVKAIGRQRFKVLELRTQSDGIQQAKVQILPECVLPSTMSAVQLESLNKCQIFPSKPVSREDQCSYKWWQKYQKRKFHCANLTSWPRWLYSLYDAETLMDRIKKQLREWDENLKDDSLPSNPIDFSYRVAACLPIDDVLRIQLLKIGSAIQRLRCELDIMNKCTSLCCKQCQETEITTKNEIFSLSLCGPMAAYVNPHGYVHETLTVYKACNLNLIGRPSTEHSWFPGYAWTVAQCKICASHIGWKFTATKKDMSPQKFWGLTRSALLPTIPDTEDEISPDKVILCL
Protocol: (§1) To determine whether the co-inhibition of C287 and C318 was due to a direct or indirect mechanism, CRBN was pretreated with various Michael acceptor compounds and then tested for probe labeling in its native and denatured states.
(§2) In each the cell lysate was pretreated with compound, for native state data the probe was immediately added and for denatured data the probe was added after an additional step of denaturation (schematic shown in FIG. 4).

[4] = target: CRBN-318 (Homo sapiens, UniProt Q96SW2); assay: as above; design: endogenous in cells; host or cells: cell lysate
Chain of CRBN-318 (Q96SW2 whole entry): as above
Protocol: as §1, §2

[5] = target: T3, CRBN_326 (Homo sapiens, UniProt Q96SW2); assay: as above
T3 construct: endogenous in cells; host or cells: cell lysate
T3 sequence (Q96SW2 whole entry): as above
Protocol: as §1, §2

[6] = target: T4, CRBN_205 (Homo sapiens, UniProt Q96SW2); assay: as above
T4 construct: endogenous in cells; host or cells: cell lysate
T4 sequence (Q96SW2 whole entry): as above
Protocol: as §1, §2

[7] = target: T5, CRBN_441 (Homo sapiens, UniProt Q96SW2); assay: as above
T5 construct: endogenous in cells; host or cells: cell lysate
T5 sequence (Q96SW2 whole entry): as above
Protocol: as §1, §2

[8] = target: T6, CRBN_219 (Homo sapiens, UniProt Q96SW2); assay: as above
T6 construct: endogenous in cells; host or cells: cell lysate
T6 sequence (Q96SW2 whole entry): as above
Protocol: as §1, §2

[9] = target: T7, CRBN_322 (Homo sapiens, UniProt Q96SW2); assay: as above
T7 construct: endogenous in cells; host or cells: cell lysate
T7 sequence (Q96SW2 whole entry): as above
Protocol: as §1, §2

[10] = target: T8, CRBN_234 (Homo sapiens, UniProt Q96SW2); assay: as above
T8 construct: endogenous in cells; host or cells: cell lysate
T8 sequence (Q96SW2 whole entry): as above
Protocol: as §1, §2

[11] = target: T9, CRBN_188 (Homo sapiens, UniProt Q96SW2); assay: as above
T9 construct: endogenous in cells; host or cells: cell lysate
T9 sequence (Q96SW2 whole entry): as above
Protocol: as §1, §2

[12] = target: T10, CRBN_310 (Homo sapiens, UniProt Q96SW2); assay: as above
T10 construct: endogenous in cells; host or cells: cell lysate
T10 sequence (Q96SW2 whole entry): as above
Protocol: as §1, §2

[13] = target: T11, CRBN_343 (Homo sapiens, UniProt Q96SW2); assay: as above
T11 construct: endogenous in cells; host or cells: cell lysate
T11 sequence (Q96SW2 whole entry): as above
Protocol: as §1, §2

[14] = target: T12, CRBN Cys219 (Homo sapiens, UniProt Q96SW2); assay: Inhibition of iodoacetamide probe labeling of CRBN cysteines, cell lysate (Table 3A); conditions: cell lysate, 1 h
T12 construct: endogenous in cells
T12 sequence (Q96SW2 whole entry): as above
Protocol: (§3) “X@Y” means that x % inhibition of iodoacetamide probe labeling was observed by treatment of cell lysate with the give compound in each row of the table for 1 h at a concentration of y micromolar. There was consistently high inhibition at C318 in addition to C287, which can be attributed to an allosteric inhibition.

[15] = target: T13, CRBN Cys287 (Homo sapiens, UniProt Q96SW2); assay: as above; conditions: cell lysate, 1 h; for inhibition at 500 µM: 500 micromolar
T13 construct: endogenous in cells
T13 sequence (Q96SW2 whole entry): as above
Protocol: as §3

[16] = target: T14, CRBN Cys366 (Homo sapiens, UniProt Q96SW2); assay: as above; conditions: cell lysate, 1 h
T14 construct: endogenous in cells
T14 sequence (Q96SW2 whole entry): as above
Protocol: as §3

[17] = target: T15, CRBN Cys343 (Homo sapiens, UniProt Q96SW2); assay: as above; conditions: cell lysate, 1 h
T15 construct: endogenous in cells
T15 sequence (Q96SW2 whole entry): as above
Protocol: as §3

[18] = target: T16, CRBN Cys188 (Homo sapiens, UniProt Q96SW2); assay: as above; conditions: 500 micromolar, cell lysate, 1 h
T16 construct: endogenous in cells
T16 sequence (Q96SW2 whole entry): as above
Protocol: as §3

[19] = target: T17, CRBN Cys205 (Homo sapiens, UniProt Q96SW2); assay: as above; conditions: cell lysate, 1 h
T17 construct: endogenous in cells
T17 sequence (Q96SW2 whole entry): as above
Protocol: as §3

[20] = target: T18, CRBN Cys234 (Homo sapiens, UniProt Q96SW2); assay: as above; conditions: cell lysate, 1 h
T18 construct: endogenous in cells
T18 sequence (Q96SW2 whole entry): as above
Protocol: as §3

[21] = target: T19, CRBN Cys318 (Homo sapiens, UniProt Q96SW2); assay: as above; conditions: cell lysate, 1 h
T19 construct: endogenous in cells
T19 sequence (Q96SW2 whole entry): as above
Protocol: as §3

[22] = read-out: % inhibition of iodoacetamide probe labeling, Cys287

C=CC(=O)N1CC(Cc2ccc(C)cc2)C1
inhibition of probe labeling, TEC_449, Den. ([1]; denatured state): 98%
inhibition of probe labeling, TEC_449, Nat. ([1]; native state): 99%
inhibition of probe labeling, BTK_481, Den. ([2]; denatured state): 99%
inhibition of probe labeling, BTK_481, Nat. ([2]; native state): 99%
inhibition of probe labeling, CRBN_287, Den. [3]: 67%
inhibition of probe labeling, CRBN_318, Den. [4]: 11%
inhibition of probe labeling, CRBN_326, Den. [5]: −16%
inhibition of probe labeling, CRBN_205, Den. [6]: −11%
inhibition of probe labeling, CRBN_205, Nat. [6]: −23%
inhibition of probe labeling, CRBN_441, Den. [7]: −24%
inhibition of probe labeling, CRBN_219, Den. [8]: 24%
inhibition of probe labeling, CRBN_219, Nat. [8]: −6%
inhibition of probe labeling, CRBN_322, Den. [9]: 15%
inhibition of probe labeling, CRBN_322, Nat. [9]: 36%
inhibition of probe labeling, CRBN_234, Den. [10]: −7%
inhibition of probe labeling, CRBN_234, Nat. [10]: −4%
inhibition of probe labeling, CRBN_188, Den. [11]: −21%
inhibition of probe labeling, CRBN_188, Nat. [11]: −13%
inhibition of probe labeling, CRBN_310, Den. [12]: −1%
inhibition of probe labeling, CRBN_310, Nat. [12]: 9%
inhibition of probe labeling, CRBN_343, Den. [13]: −28%

C=CC(=O)N1CCC(Oc2cc(C(=O)N(C)C)cc(-c3ccccc3OC)c2)CC1 [Example A2]
inhibition at 500 µM ([14]; 500 micromolar, read-out: % inhibition of iodoacetamide probe labeling, Cys219): 31%
inhibition at 500 µM [15, 22]: 91%
inhibition at 500 µM ([16]; 500 micromolar): 2%
inhibition at 500 µM ([17]; 500 micromolar): -6%
inhibition at 500 µM [18]: 9%
inhibition at 500 µM ([19]; 500 micromolar, read-out: % inhibition of iodoacetamide probe labeling, Cys205): 18%

CC(/C=C(\C#N)C(=O)N1CCC(c2ccccc2)C1)c1ccccc1 (stereo not shown) [Example A7]
inhibition at 5 µM ([14]; 5 micromolar): -3%
inhibition at 50 µM ([14]; 50 micromolar): 32%
inhibition at 2 µM ([15]; 2.0 micromolar, read-out: % inhibition of iodoacetamide probe labeling, Cys287): 71%
inhibition at 7.8 µM ([15]; 7.8 micromolar): 72%
inhibition at 31.2 µM ([15]; 31.2 micromolar, read-out: % inhibition of iodoacetamide probe labeling, Cys287): 95%
inhibition at 125 µM ([15]; 125 micromolar, read-out: % inhibition of iodoacetamide probe labeling, Cys287): 94%
inhibition at 500 µM [15, 22]: 92%
inhibition at 0.5 µM ([20]; 0.5 micromolar): 12%
inhibition at 5 µM ([20]; 5 micromolar): 19%
inhibition at 50 µM ([20]; 50 micromolar): 32%
inhibition at 0.5 µM ([21]; 0.5 micromolar): 39%
inhibition at 5 µM ([21]; 5 micromolar): 67%
inhibition at 50 µM ([21]; 50 micromolar): 69%
inhibition at 0.5 µM ([16]; 0.5 micromolar): 3%
inhibition at 5 µM ([16]; 5 micromolar): 3%
inhibition at 50 µM ([16]; 50 micromolar): 26%
inhibition at 5 µM ([17]; 5 micromolar): 8%
inhibition at 50 µM ([17]; 50 micromolar): 51%
inhibition at 5 µM ([19]; 5 micromolar): -42%
